From patent publication US9051351B2, “Hepatocyte growth factor mimics as therapeutic agents” (Washington State University, priority 2011, dated 2015)
Entries after “also recorded” stand apart in the source; their conditions may differ. Where two headings read alike, the source gives them in different places. Where a SMILES comes first, the peptide text is derived from it. [ ]: non-standard residue; d: D form. The star is where a group is joined. Hexanoyl = CCCCCC(=O)*; Ahx = NCCCCCC(=O)O

Experiments:
c-Met receptor = experiment: c-Met phosphorylation in acute adult hippocampal slices; type: cell-based, rat; conditions: 30 minutes
Excerpt: Adult Sprague-Dawley rats (250 g+) obtained from Harlan Laboratories (Ca, USA) were anesthetized with isofluorane (Vet One™, MWI, Meridian, Id., USA) and decapitated. The brain was rapidly removed and placed into ice-chilled artificial cerebrospinal fluid (aCSF) for approximately 30 s. Both hemispheres were separated by a mid-saggital cut and both hippocampi removed. Slices were sectioned cross- and length-wise (400 μm) to ensure penetrability of the drug, using a Mcllwain tissue chopper (Brinkmann, Gomshall, UK) and transferred to a gassed (95% O2/5% CO2) incubation chamber containing aCSF for 90 minutes at room temperature. Slices were transferred to fresh tubes, aCSF was removed by careful suctioning and replaced with aCSF containing vehicle (aCSF+aCSF), 100 ng/ml with carrier free adult recombinant Hepatocyte Growth Factor (HGF) (R and D Systems, MN, USA) in aCSF, 10^−10 M Hinge (Harding lab), […], 10^−10 M Dihexa (Harding lab) in aCSF, 10^−12 M Dihexa in aCSF or 50 ng/ml HGF+10^−12 M Dihexa in aCSF for 30 minutes at 37° C. with gentle rocking. aCSF was removed and the slices were lysed using RIPA buffer (Upstate/Milipore, Billerica, Mass.) and inhibitor Cocktails I and II (Sigma, St. Louis, Mo.), sonicated on ice and clarified by centrifugation for 30 minutes, 13,000 rpm at 4° C. The supernatant was removed from the pellet and stored at −80° C. or processed immediately for gel electrophoresis.
Protein concentration of the samples was quantified using the BCA method (Pierce, Rockford, Ill.) following the manufacturers protocol. Samples were added to SDS-PAGE buffer and boiled for 10 min. before loading onto a 4-12% Bis-Tris pre-cast gel (Invitrogen, Carlsbad, Calif.) for electrophoresis. Proteins were transferred onto PVDF membranes (Bio Rad, Hercules, Calif.) and blocked with AquaBlock™ (New England Biolabs, Ipswich, Mass.) for 1 hour at room temperature (RT). Primary antibody incubation was done in AquaBlock™ with rabbit anti-Met and […] phospho-Met (Tyr1234/1235) (1:1000, Cell Signaling Technology, Danvers, Mass.) overnight at 4° C. Alternating washes were done with PBS and PBST. Secondary antibody (IRDye) (Rockland, Gilbertsville, Pa.) incubations were done in AquaBlock™ for one hour at RT. Blots were imaged using LI-COR Odyssey Infrared Imaging System (LI-COR Biosciences, Lincoln, Nebr.).

6-OHDA lesioned rats = experiment: 6-OHDA lesioned rat: rope hang, gait analysis, histology; type: in vivo
Protocol: Three groups of rats (8 animals per group) were utilized. The first two groups were prepared with unilateral 6-OHDA lesions and members of the first group was treated with MM-201 in DMSO 100 μl:PBS 8 ml ([…]) Members of Group 2 were treated with sterile DMSO 100 μl:PBS 8 ml equivalent volumes to the weights. Members of Group 3 had only a sham surgery and served as the non-treated controls. These three groups of animals were tested on behavioral tasks the day prior to surgery and on 13 days following surgery. The tasks included rope hang, and gait analysis.
The rope hang test involved the placement of the forepaws on a hemp rope (1.0 cm in dia.) located 1 m above a basket of towels. Hang time was recorded beginning when the experimenter let go of the animal. This test was repeated 3 times/animal/test (5 minutes rest between each test) every other day.
Step gait analyses were conducted in a dark room painted black under red light. The bottoms of each rat's feet were painted with black ink (Parker Quink) and the rat was placed in a Plexiglas straight maze (length×width×height: 116×7.6×10 cm). The maze was slightly elevated at one end such that the animal's tendency was to walk up hill. White paper strips placed on the floor of the maze were used to collect the gait patterns. These ink tracks were analyzed for stride length (distance between the mid point of the fore paw and hind paw comparing left and right strides).

[1] = Serum metabolism of peptides in rat serum; type: in vitro ADME; conditions: male, Sprague Dawley, rat, rat serum
Protocol: Four month old male Sprague Dawley rats were used as the blood source for the metabolism studies. Blood was collected from left/right jugular veins of the rats using sterile catheters. After a 30 minute incubation on ice, the blood was centrifuged at 1000 rpm for 15 min to separate the serum. Serum was then transferred to clean tubes and stored at −20° C. until use.
Except for dihexa all drug solutions were prepared in HPLC grade water at 5 mg/ml. Stock drugs were kept in powder form and stored at −20° C. Serum metabolism experimental procedure and analysis. Rat blood serum samples were pre-equilibrated at 37° C. and then 10 μL (50 μg) of each drug solution was added to 90 μL of rat serum in 1.5 mL Eppendorf tube maintained at 37° C. At specified time intervals, metabolism was terminated by precipitating proteins with the addition of 1 ml of a solution of acetonitrile (ACN) and acetic acid (9:1, v/v). The terminated reaction mixture was stored in refrigerator (5° C.) overnight and centrifuged (14,000 rpm) for 30 min to remove precipitated proteins. The separated supernatant was dried in vacuum concentrator. The dried samples were reconstituted using 200 μL HPLC mobile phase (10% v/v ACN in water), vortexed briefly, and subjected to HPLC separation and analysis. A serum blank experiment to detect any interfering peaks in the HPLC chromatogram was performed by in an identical manner except that no drug was added. Zero time values for each drug candidate were established by first treating the serum with ACN, processing the sample as described above, adding drug, and then performing HPLC analysis.
The degradation rate of drug was determined by measuring the decrease in area under curve (AUC) at the retention time of drug over time. The AUC obtained from the zero time experiment was considered to represent the “100%” drug concentration and was used to determine the decreased drug concentration at each specified time interval. The semi-logarithmic plot of drug concentration vs. time was generated to determine degradation kinetic constant (k) of the tested drug. The half-life of drug was (t1/2) was calculated by 0.693/k.
Analysis of samples was performed using an HPLC system. The system consisted of a communications bus module, pumps, and a photodiode array detector. Separation was achieved using a C18 (250 mm×4.6 mm id., 5 μm particle size) reverse phase column. The column temperature was set at 40° C. The mobile phase consisted of a mixture of ACN and water with 0.1% TFA and was degassed by ultrasonication. Samples were introduced by manual mode with an injection volume of 250 μL. The drug was eluted with a flow rate of 1 mL/min and detected by PDA detector at […] wavelengths of 215 and 280 nm.

## CCCCCC(=O)N[C@@H](Cc1ccc(O)cc1)C(=O)N[C@H](C(=O)NCCCCCC(N)=O)[C@@H](C)CC [Dihexa, N-hexanoic-Tyr-Ile-(6)-aminohexanoic amide] (Hexanoyl-Tyr-Ile-[Ahx]-NH2)
c-Met receptor; saturating doses: HGF 100 ng/ml, Dihexa 10^−10 M
  c-Met phosphorylation vs vehicle (aCSF): increased c-Met phosphorylation; also recorded: effectively augment c-Met phosphorylation
c-Met receptor; sub-threshold doses: HGF 50 ng/ml, Dihexa 10^−12 M
  c-Met phosphorylation vs vehicle (aCSF): not statistically different from control treated slices; also recorded: did not significantly increase c-Met receptor phosphorylation
6-OHDA lesioned rats; 0.5 mg/kg ip, started 2 weeks after 6-OHDA lesion
  performance in the rope hang test: completely restores performance in the rope hang test; also recorded: completely restored the performance
6-OHDA lesioned rats; 2 mg/kg by oral gavage/48 hrs
  motor deficits in the 6-OHDA rat: reverses motor deficits
6-OHDA lesioned rats; 6-OHDA lesioned rats
  gait analysis: confirmed the recovery of normal motor function
6-OHDA lesioned rats; 96 day studies
  overt toxicity: no overt toxicity was noted
6-OHDA lesioned rats; six weeks of ip Dihexa treatment
  tyrosine hydroxylase (TH) staining in the substantia nigra: dramatic restoration of tyrosine hydroxylase (TH) staining
6-OHDA lesioned rats; three months of Dihexa treatment
  recovery of SN TH staining: ~100%
[1]; 37° C., Mean +/− SD, N = 3, read-out: Half-Life (min), serum stability
  half-life at 0.5 mg/mL: 336 min
[1]; read-out: t1/2 in rat serum
  half-life at 0.5 mg/mL: 330 min
